Data from patent US20250170090A1, “METHOD FOR PREVENTING OR TREATING DISEASE OR DISORDER ASSOCIATED WITH ANTINEOPLASTIC AGENT” (ONQUALITY PHARMACEUTICALS CHINA LTD., priority 2022, published 2025).
Where two headings read alike, the source gives them in different places.

How the values were obtained:
[1] = system: anti-tumor agent-induced hand-foot syndrome; test: Comparison of different mechanism compounds in preventing sorafenib-induced hand-foot syndrome in rats (Table 6); format: in vivo; conditions: Sorafenib 80 mg/kg once a day, Days 15
Description: After the rats (about 200 g) were acclimated for one week, they were divided into groups of 10 and then subjected to gavage administration experiments. The anti-tumor agent (the anti-tumor agent modeled by sorafenib) was dissolved in a mixed solution of Cremophor EL:ethanol=1:1, and diluted to the required concentration with PBS (diluted about 3 times with PBS solution) before gavage administration. After gavage, the hind paws of the rats were treated with ointments of different mechanisms (NO-releasing agent group, NO-releasing agent combined with clinical drug group, NSAID group), while the control group was treated with a blank ointment. After the application of the ointment, the rats were placed in a fixed cylinder for 4 hours. After 4 hours, the rats were released, and the residual drugs in the application site were wiped off with clean water, and the rats were returned to the cage. Different treatment groups were only applied once a day. Gavage and ointment application were repeated every day until the end of the experiment.
Table 6 lists the animal experimental combinations of various anti-tumor agents and ointments from different treatment groups, as well as the corresponding experimental results (where the value in the control rate column=the incidence rate of hand-foot syndrome in the blank group−the incidence rate of hand-foot syndrome in the treatment group).

[2] = system: hand-foot syndrome induced by anti-tumor agents; test: Prevention of hand-foot syndrome induced by anti-tumor agents in rats, NO-NSAID ointment on hind paws (Table 2-2); format: in vivo, SD rats; conditions: Rattus norvegicus, topical, 120 h, Sorafenib 80 mg/kg once a day, Days 5, read-out: Control rate
Description: A rat animal model was constructed, and the anti-tumor agents shown in Table 2-2 were respectively administered to 8-week-old female SD rats by daily oral gavage. […] Therefore, rats serve as an excellent animal model for simulating side effects (such as hand-foot syndrome) caused by anti-tumor agents.
After the rats (about 200 g) were fed and adapted for one week, they were divided into a NO-NSAID group and a control group, with 10 rats in each group, and a gavage administration test was conducted. The various anti-tumor agents were dissolve in a mixed solution of Cremophor EL:ethanol=1:1. The anti-tumor agent solution were diluted with PBS to the required concentration (about 3 times with PBS solution) before gavage administration. After gavage, an ointment containing NO-NSAID was applied to the hind paws of the rats, while the control group was applied with a blank ointment. After application, the rats were placed in a fixed cylinder for 4 hours. After 4 hours, the rats were released and the residual ointment was wiped off with clean water, then the rats were returned to the cage. The gavage frequency of inhibitors was shown in Table 2-2, and NO-NSAID was only applied once a day. The gavage and application operations were repeated daily until the end of the experiment.
Table 2-2 lists the animal experimental combinations of various anti-tumor agents and NO-NSAID ointments, as well as the corresponding experimental results (wherein the value in the control rate column=the hand-foot syndrome incidence rate in the blank group−the hand-foot syndrome incidence rate in the treatment group).

[3] = system: HUVEC cells; test: CCK-8 cell viability: alleviation of proliferative toxicity of anti-tumor agents on HUVEC cells (Tables 7-1, 7-2); format: cell-based; conditions: Homo sapiens, 24 h, NO-NSAID 100 μM, percentage increase in viable cells vs anti-tumor agent alone, read-out: Response rate % (average)
Description: The cultured HUVEC cells were digested the suspended, counted, and seed into a 96-well plate with 5,000-10,000 cells per well. The wells are divided into the following groups: blank control group, anti-tumor agent group, anti-tumor agent+NO-NSAID group, anti-tumor agent solvent group, NO-NSAID control group. Wherein each well of each group contained a basic medium, and the final liquid volume contained in each well was about 100 μL. The grouping situation was as follows: • 1) Blank control group: no solution was added except normally replacing the medium; • 2) Anti-tumor agent group: added the anti-tumor agent solution (the final concentration was shown in Table 7-1 and Table 7-2, the solvent of the anti-tumor agent solution was DMSO); • 3) Anti-tumor agent+NO-NSAID group: added the anti-tumor agent solution and the NO-NSAID solution (the final concentrations of anti-tumor agent and NO-NSAID were shown in Table 7-1 and Table 7-2, and according to the solubility of NO-NSAID, the solvent of NO-NSAID solution was selected as ethanol or sterile water, and minor volume differences in each group were adjusted by added the corresponding solvent); • 4) Anti-tumor agent solvent group: an equal volume of DMSO as contained in the corresponding anti-tumor agent solution in Group 2) was added; • 5) NO-NSAID control group: the same volume and type of solvent (for example, ethanol or sterile water) corresponding to the NO-NSAID contained in group 3) was added.
The anti-tumor agent solvent group was not involved in data processing and was only used as a reference for evaluating experimental system error. The NO-NSAID solvent control group was used for data correction to eliminate the influence of the solvent on the results.
After culturing for 24-48 hours, the Cell Counting Kit-8 (CCK-8) detection kit (C0037, Shanghai Beyotime Biotechnology Co., Ltd., Beyotime Biotechnology) was used to determine the cell viability. This allows for the calculation of the proliferative toxicity of anti-tumor agent on cell and the mitigating effect of NO-NSAID on proliferative toxicity. The results were statistically analyzed and plotted using GraphPad Prism 6.0 software and t test.

O=[N+]([O-])OCC(CO[N+](=O)[O-])O[N+](=O)[O-] [Nitroglycerin]
Control rate ([1]; ointment 0.20% wt): 60%

COc1ccc2cc([C@H](C)C(=O)O)ccc2c1 [Naproxen]
Control rate ([1]; ointment 2.50% wt): 16.67%

CC(C)Cc1ccc(C(C)C(=O)O)cc1 (centres unmarked) [Ibuprofen]
Control rate ([1]; ointment 2.00% wt): 0%

COc1ccc2cc(C(C)C(=O)OCC(CO[N+](=O)O)C[N+](=O)[O-])ccc2c1 (centres unmarked) [Compound A9]
responders at 1 % ([2]; ointment 1% wt): 28.6%
responders at 5 % ([2]; ointment 5% wt): 33.3%
activation at 100 µM ([3]; Afatinib (10 μM)): 32%
activation at 100 µM ([3]; Anlotinib (5 μM)): 58%
activation at 100 µM ([3]; Apatinib (10 μM)): 62%
activation at 100 µM ([3]; Axitinib (10 μM)): 45%
activation at 100 µM ([3]; Cabozantinib (5 μM)): 0%
activation at 100 µM ([3]; Dabrafenib (10 μM)): 35%
activation at 100 µM ([3]; Dacomitinib (5 μM)): 39%
activation at 100 µM ([3]; Encorafenib (5 μM)): 15%
activation at 100 µM ([3]; Erdafitinib (10 μM)): 42%
activation at 100 µM ([3]; Everolimus (5 μM)): 7%
activation at 100 µM ([3]; Famitinib (5 μM)): 33%
activation at 100 µM ([3]; Fruquintinib (10 μM)): 56%
activation at 100 µM ([3]; Gefitinib (10 μM)): 40%
activation at 100 µM ([3]; Infigratinib (15 μM)): 29%
activation at 100 µM ([3]; Lapatinib (5 μM)): 40%
activation at 100 µM ([3]; Lenvatinib (10 μM)): 43%
activation at 100 µM ([3]; Olmutinib (10 μM)): 42%
activation at 100 µM ([3]; Regorafenib (5 μM)): 40%
activation at 100 µM ([3]; Selumetinib (5 μM)): 36%
activation at 100 µM ([3]; Sorafenib (5 μM)): 48%
activation at 100 µM ([3]; Sunitinib (5 μM)): 16%
activation at 100 µM ([3]; Vemurafenib (5 μM)): 39%

CC(=O)Oc1ccccc1C(=O)O [Acetylsalicylic acid]
Control rate ([1]; ointment 1.00% wt): 14.29%

CC(C(=O)OCC(CO[N+](=O)[O-])O[N+](=O)[O-])c1ccc(-c2ccccc2)c(F)c1 (centres unmarked) [Compound A10]
activation at 100 µM ([3]; Afatinib (10 μM)): 56%
activation at 100 µM ([3]; Anlotinib (5 μM)): 27%
activation at 100 µM ([3]; Apatinib (10 μM)): 58%
activation at 100 µM ([3]; Axitinib (10 μM)): -7%
activation at 100 µM ([3]; Cabozantinib (5 μM)): 49%
activation at 100 µM ([3]; Dabrafenib (10 μM)): 42%
activation at 100 µM ([3]; Dacomitinib (5 μM)): 37%
activation at 100 µM ([3]; Encorafenib (5 μM)): 33%
activation at 100 µM ([3]; Erdafitinib (10 μM)): 23%
activation at 100 µM ([3]; Everolimus (5 μM)): 21%
activation at 100 µM ([3]; Famitinib (5 μM)): 49%
activation at 100 µM ([3]; Fruquintinib (10 μM)): 59%
activation at 100 µM ([3]; Gefitinib (10 μM)): 40%
activation at 100 µM ([3]; Infigratinib (15 μM)): 32%
activation at 100 µM ([3]; Lapatinib (5 μM)): 32%
activation at 100 µM ([3]; Lenvatinib (10 μM)): 57%
activation at 100 µM ([3]; Olmutinib (10 μM)): 48%
activation at 100 µM ([3]; Regorafenib (5 μM)): 48%
activation at 100 µM ([3]; Selumetinib (5 μM)): 46%
activation at 100 µM ([3]; Sorafenib (5 μM)): 13%
activation at 100 µM ([3]; Sunitinib (5 μM)): 21%
activation at 100 µM ([3]; Vemurafenib (5 μM)): 63%
